By Ki is commonly meant the equilibrium dissociation constant of an inhibitor or competing ligand from its target.

These results are taken from ChEMBL document CHEMBL1148010, “Synthesis and biological evaluation of 2beta,3alpha-(substituted phenyl)nortropanes as potential norepinephrine transporter imaging agents” (Bioorg Med Chem Lett, 2007).

Structures are written as SMILES.

Data set [1] concerns the target Monoamine transporters; Norepinephrine & dopamine (Homo sapiens, UniProt Q01959+P23975). The experiment in a line: Selectivity of human NET over human DAT expressed in HEK293 cells. In kind it is cell-based.
Data set [2] deals with Sodium-dependent noradrenaline transporter (Homo sapiens, UniProt P23975). The experiment in a line: Displacement of [3H]nisoxetine from human NET expressed in HEK293 cells. In kind it is cell-based. For orientation: Displacement assays read how much labelled ligand stays bound in the presence of the test substance.
Chain of Sodium-dependent noradrenaline transporter (P23975 whole entry): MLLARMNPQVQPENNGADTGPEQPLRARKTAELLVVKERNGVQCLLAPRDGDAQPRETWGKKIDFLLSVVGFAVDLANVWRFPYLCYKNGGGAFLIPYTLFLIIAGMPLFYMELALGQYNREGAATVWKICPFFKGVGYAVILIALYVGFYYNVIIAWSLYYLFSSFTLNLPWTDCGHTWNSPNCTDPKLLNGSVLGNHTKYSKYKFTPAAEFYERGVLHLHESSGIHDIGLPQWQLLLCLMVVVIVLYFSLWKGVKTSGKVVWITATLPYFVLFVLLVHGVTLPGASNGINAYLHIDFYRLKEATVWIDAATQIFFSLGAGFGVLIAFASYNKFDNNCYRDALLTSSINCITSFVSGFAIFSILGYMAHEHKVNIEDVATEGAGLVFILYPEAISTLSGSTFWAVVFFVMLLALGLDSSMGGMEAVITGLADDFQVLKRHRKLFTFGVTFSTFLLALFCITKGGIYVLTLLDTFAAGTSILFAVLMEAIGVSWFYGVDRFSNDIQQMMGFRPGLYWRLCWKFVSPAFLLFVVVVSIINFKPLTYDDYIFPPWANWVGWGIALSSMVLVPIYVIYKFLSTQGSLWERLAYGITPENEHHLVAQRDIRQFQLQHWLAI
Data set [3] concerns the target Serotonin and norepinephrine transporters (SERT/NET) (Homo sapiens, UniProt P31645+P23975). The experiment in a line: Selectivity of human NET over human SERT expressed in HEK293 cells. In kind it is cell-based.
Data set [4] deals with Sodium-dependent serotonin transporter (Homo sapiens, UniProt P31645). The experiment in a line: Displacement of [3H]citalopram from human SERT expressed in HEK293 cells. In kind it is cell-based.
Chain of Sodium-dependent serotonin transporter (P31645 whole entry): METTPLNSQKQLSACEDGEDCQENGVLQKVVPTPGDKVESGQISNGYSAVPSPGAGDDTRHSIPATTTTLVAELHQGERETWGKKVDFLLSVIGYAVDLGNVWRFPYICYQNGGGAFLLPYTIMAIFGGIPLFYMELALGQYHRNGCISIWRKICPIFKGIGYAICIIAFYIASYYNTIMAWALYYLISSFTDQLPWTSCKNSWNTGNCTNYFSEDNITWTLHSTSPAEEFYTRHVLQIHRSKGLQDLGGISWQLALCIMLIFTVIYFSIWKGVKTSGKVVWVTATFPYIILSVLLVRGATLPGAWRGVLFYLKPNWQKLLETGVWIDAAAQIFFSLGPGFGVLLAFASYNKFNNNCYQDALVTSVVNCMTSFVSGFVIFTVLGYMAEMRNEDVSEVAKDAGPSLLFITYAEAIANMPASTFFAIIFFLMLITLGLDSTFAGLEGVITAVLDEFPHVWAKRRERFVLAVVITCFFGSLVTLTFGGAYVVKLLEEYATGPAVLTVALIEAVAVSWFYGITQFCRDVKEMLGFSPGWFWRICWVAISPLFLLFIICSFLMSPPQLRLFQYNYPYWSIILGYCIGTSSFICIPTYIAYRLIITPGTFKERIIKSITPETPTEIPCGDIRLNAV
The target in data set [5] is Sodium-dependent dopamine transporter (Homo sapiens, UniProt Q01959). The data set is described as follows: Displacement of [125I]RTI55 from human DAT expressed in HEK293 cells. The data set is classed as cell-based.
Chain of Sodium-dependent dopamine transporter (Q01959 whole entry): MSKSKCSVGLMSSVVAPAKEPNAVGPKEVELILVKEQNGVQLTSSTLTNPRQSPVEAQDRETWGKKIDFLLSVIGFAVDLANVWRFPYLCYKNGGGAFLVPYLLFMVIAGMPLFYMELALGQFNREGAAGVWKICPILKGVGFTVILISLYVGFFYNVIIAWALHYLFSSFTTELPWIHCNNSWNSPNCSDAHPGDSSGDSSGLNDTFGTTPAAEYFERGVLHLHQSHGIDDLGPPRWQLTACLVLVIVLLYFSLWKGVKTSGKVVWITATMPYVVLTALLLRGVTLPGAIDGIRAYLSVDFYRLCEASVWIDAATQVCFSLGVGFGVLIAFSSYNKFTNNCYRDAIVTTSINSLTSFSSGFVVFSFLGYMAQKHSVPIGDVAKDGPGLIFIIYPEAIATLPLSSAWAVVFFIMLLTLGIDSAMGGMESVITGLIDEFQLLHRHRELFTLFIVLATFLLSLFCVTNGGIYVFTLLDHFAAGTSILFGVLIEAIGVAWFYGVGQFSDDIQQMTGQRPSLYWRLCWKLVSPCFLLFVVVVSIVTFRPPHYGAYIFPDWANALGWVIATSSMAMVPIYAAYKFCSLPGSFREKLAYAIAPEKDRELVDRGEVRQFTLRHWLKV
A short description of data set [6]: Drug level in Rhesus monkey plasma assessed as unmetabolized fractions at 3 mins. The following applies: read-out: Activity. The data set is classed as ADME, cell-free, Macaca mulatta.
Data set [7] in a line: Drug level in Rhesus monkey plasma assessed as unmetabolized fractions at 30 mins. In kind it is ADME, cell-free, Macaca mulatta. The conditions noted are these: read-out: Activity.
Data set [8] is described as follows: Drug level in Rhesus monkey plasma assessed as unmetabolized fractions at 10 mins. The data set is classed as ADME, cell-free, Macaca mulatta. The conditions noted are these: read-out: Activity.

For `COC(=O)[C@@H]1[C@H]2CC[C@H](C[C@H]1c1ccc(C)cc1)N2`, in data set [1], the “NET over DAT selectivity ratio (no unit)” value was 2.3 nM. For the same molecule, the Ki was 4.88 nM in data set [2], 136 nM in data set [4] and 11.5 nM in data set [5]. In data set [3], the “NET over SERT selectivity ratio” value is given as 28 nM.
As for `Cc1ccc([C@@H]2C[C@H]3CC[C@@H](N3)[C@H]2C(=O)O[11CH3])cc1F`, the remaining at 0.05 h in data set [6] amounted to 25%. Further, the remaining at 0.5 h in data set [7] came to 1.6%. For the same molecule, the remaining at 10 min in data set [8] was 7.5%.
Take `COC(=O)[C@@H]1[C@H]2CC[C@H](C[C@H]1c1ccc(C)c(F)c1)N2`: in data set [1], the “NET over DAT selectivity ratio (no unit)” value is 3.6 nM. Moreover, the results for the Ki in data set [2], in data set [4] and in data set [5] were 1.78 nM, 42.8 nM and 6.42 nM, respectively. The “NET over SERT selectivity ratio” value in data set [3] amounted to 24 nM.
Take `C=Cc1ccc([C@@H]2C[C@H]3CC[C@@H](N3)[C@H]2C(=O)OC)cc1`: the “NET over DAT selectivity ratio (no unit)” value in data set [1] amounted to 2.2 nM. Also, the Ki in data set [2] amounted to 4.67 nM; in data set [4], 9.04 nM; in data set [5], 10.1 nM. For the same molecule, in data set [3], the “NET over SERT selectivity ratio” value is on record as 1.9 nM.
The matching figures for `C#Cc1ccc([C@@H]2C[C@H]3CC[C@@H](N3)[C@H]2C(=O)OC)cc1`: 1.2 nM, 1.86 nM, 3.45 nM, 2.26 nM and 1.8 nM.
The matching figures for `COC(=O)[C@@H]1[C@H]2CC[C@H](C[C@H]1c1ccc(I)cc1)N2`: 1.1 nM, 1.98 nM, 4.16 nM, 2.25 nM and 2.1 nM.
